Target: T1, human liver GK (Homo sapiens, UniProt P35557)
T1 construct: GST (glutathione S-transferase) (N); made in house; host or cells: E. coli
T1 sequence (P35557 1-466 isoform P35557-2): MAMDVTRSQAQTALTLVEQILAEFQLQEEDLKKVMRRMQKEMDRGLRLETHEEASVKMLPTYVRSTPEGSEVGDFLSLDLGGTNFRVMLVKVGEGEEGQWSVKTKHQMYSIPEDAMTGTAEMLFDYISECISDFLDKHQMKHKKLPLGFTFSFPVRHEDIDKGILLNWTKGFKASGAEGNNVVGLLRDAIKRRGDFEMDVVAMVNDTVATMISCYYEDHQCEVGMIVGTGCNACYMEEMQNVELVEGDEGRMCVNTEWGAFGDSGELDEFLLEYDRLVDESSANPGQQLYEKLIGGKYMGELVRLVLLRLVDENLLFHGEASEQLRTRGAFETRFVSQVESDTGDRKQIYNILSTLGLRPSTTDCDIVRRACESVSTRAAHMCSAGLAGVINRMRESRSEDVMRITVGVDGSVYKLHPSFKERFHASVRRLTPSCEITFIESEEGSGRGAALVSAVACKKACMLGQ
Experiment: GK activation test
Type: biochemical
Conditions: test compound concentration needed to activate 50% of maximum activation ability; 4 mM 14C-labeled glucose, 2 mM ATP, room temperature, 20 minutes
Description: The GK activation test for the test compounds was performed by the method of Irwin A. Rose et al. (J. Biol. Chem. 1964 January; 239:12-7) with partial modifications.
The enzyme source used in this assay, human liver GK, was expressed in E. coli as a fusion protein with GST (glutathione S-transferase) added to the amino terminus and was purified using Glutathione Sepharose 4B (Amersham Biosciences).
The test was carried out using flat-bottom 96-well plates (Sumitomo Bakelite Co., Ltd.). A solution of the test compound in dimethyl sulfoxide (DMSO) and DMSO as a control were added to each well of the plates at a final DMSO concentration of 1%. 25 mM Hepes-KOH (pH=7.1), 25 mM KCl, 2 mM MgCl2, 2 mM ATP, 4 mM ^14C-labeled glucose (Muromachi Yakuhin) and 1 mM DTT (dithiothreitol) were further added at the indicated final concentrations, respectively. Finally, human liver GK was added at 0.24 microgram per well and the reaction was started. The reaction was carried out at room temperature.
After 20 minutes, AG1-X4 resin (BioRad) suspended in 25 mM Hepes-KOH (pH=7.1) was added and the reaction product, labeled glucose 6-phosphate, was allowed to bind thereto. The whole volume was transferred to MultiScreen plates (Millipore) and the resin was washed with water. Thereafter, the labeled glucose 6-phosphate binding to the resin was eluted with a 0.5 M NaCl solution. The labeling activity of the eluted labeled glucose 6-phosphate was measured as an index of GK activity.
The GK activity maximally activated by the test compound was described as maximum activation ability, and the test compound concentration needed to activate 50% of that ability was described as EC50.

Question: `O=C1CC[C@H](CC(c2ccc(C(F)(F)F)cc2)c2ccc(C3CC3)c(=O)[nH]2)N1` (single isomer, unassigned) [Example 4-248] was tested. Which EC50 did it give?
Answer: 0.5 to 3 µM

Question: For `O=C1CC[C@H](CC(c2ccc(C(F)(F)F)cc2)c2ccc(C3CC3)c(=O)[nH]2)N1` (single isomer, unassigned) [Example 4-249], which EC50 is on record?
Answer: 3 to 10 µM

Question: Which EC50 does the source give for `O=C1CC[C@H](CC(c2ccc(O)c(Cl)c2)c2ccc(C3CC3)c(=O)[nH]2)N1` (single isomer, unassigned) [Example 4-250] here?
Answer: 0.5 to 3 µM

Question: Which EC50 does the source give for `O=C1CC[C@H](CC(c2ccc(O)c(Cl)c2)c2ccc(C3CC3)c(=O)[nH]2)N1` (single isomer, unassigned) [Example 4-251] here?
Answer: 3 to 10 µM

Question: With `O=C1CC[C@H](CC(c2ccc(Cl)cc2)c2ccc(C3CC3)c(=O)[nH]2)N1` (single isomer, unassigned) [Example 4-252] as the molecule, how does the EC50 read?
Answer: 0.5 to 3 µM

Question: How did the EC50 turn out when `O=C1CC[C@H](CC(c2ccc(C(F)(F)F)c(Cl)c2)c2ccc(C3CC3)c(=O)[nH]2)N1` (single isomer, unassigned) [Example 4-254] was run?
Answer: 0.01 to 0.5 µM

Question: How did the EC50 turn out when `O=C1CC[C@H](CC(c2ccc(C(F)(F)F)c(Cl)c2)c2ccc(C3CC3)c(=O)[nH]2)N1` (single isomer, unassigned) [Example 4-255] was run?
Answer: 3 to 10 µM

Question: How did the EC50 turn out when `Cc1ccc(C(C[C@H]2CCC(=O)N2)c2ccc(C3CC3)c(=O)[nH]2)cc1` (single isomer, unassigned) [Example 4-294] was run?
Answer: 0.5 to 3 µM

Question: With `CC(C)Oc1ccc(C(C[C@H]2CCC(=O)N2)c2ccc(Cl)c(=O)[nH]2)cc1Cl` (single isomer, unassigned) [Example 4-296] as the molecule, how does the EC50 read?
Answer: 0.5 to 3 µM

Question: With `CC(C)Oc1ccc(C(C[C@H]2CCC(=O)N2)c2ccc(Cl)c(=O)[nH]2)cc1Cl` (single isomer, unassigned) [Example 4-297] as the molecule, how does the EC50 read?
Answer: 3 to 10 µM

Question: How did the EC50 turn out when `Cc1cc(C(C[C@H]2CCC(=O)N2)c2ccc(C3CC3)c(=O)[nH]2)ccc1S(=O)(=O)C1CC1` (single isomer, unassigned) [Example 4-298] was run?
Answer: 0.01 to 0.5 µM

Question: With `Cc1cc(C(C[C@H]2CCC(=O)N2)c2ccc(C3CC3)c(=O)[nH]2)ccc1S(=O)(=O)C1CC1` (single isomer, unassigned) [Example 4-299] as the molecule, how does the EC50 read?
Answer: 3 to 10 µM

Question: How did the EC50 turn out when `CCc1ccc(C(C[C@H]2CCC(=O)N2)c2ccc(C3CC3)c(=O)[nH]2)cc1` (single isomer, unassigned) [Example 4-302] was run?
Answer: 0.01 to 0.5 µM

Question: With `CCc1ccc(C(C[C@H]2CCC(=O)N2)c2ccc(C3CC3)c(=O)[nH]2)cc1` (single isomer, unassigned) [Example 4-303] as the molecule, how does the EC50 read?
Answer: 3 to 10 µM

Question: How did the EC50 turn out when `O=C1CC[C@H](CC(c2ccc(S(=O)(=O)C3CC3)c(Cl)c2)c2ccc(Cl)c(=O)[nH]2)N1` (single isomer, unassigned) [Example 4-304] was run?
Answer: 0.01 to 0.5 µM

Question: How did the EC50 turn out when `O=C1CC[C@H](CC(c2ccc(S(=O)(=O)C3CC3)c(Cl)c2)c2ccc(Cl)c(=O)[nH]2)N1` (single isomer, unassigned) [Example 4-305] was run?
Answer: 3 to 10 µM

Question: `O=C1CC[C@H](CC(c2ccc(S(=O)(=O)C3CC3)cc2)c2ccc(C3CC3)c(=O)[nH]2)N1` (single isomer, unassigned) [Example 4-306] was tested. Which EC50 did it give?
Answer: 0.01 to 0.5 µM

Question: How did the EC50 turn out when `O=C1CC[C@H](CC(c2ccc(S(=O)(=O)C3CC3)cc2)c2ccc(C3CC3)c(=O)[nH]2)N1` (single isomer, unassigned) [Example 4-307] was run?
Answer: 3 to 10 µM

Question: Which EC50 does the source give for `CCc1ccc(C(C[C@H]2CCC(=O)N2)c2ccc(Cl)c(=O)[nH]2)cc1` (single isomer, unassigned) [Example 4-308] here?
Answer: 0.5 to 3 µM

Question: `CCc1ccc(C(C[C@H]2CCC(=O)N2)c2ccc(Cl)c(=O)[nH]2)cc1` (single isomer, unassigned) [Example 4-309] was tested. Which EC50 did it give?
Answer: 3 to 10 µM

Question: With `Cc1ccc(C(C[C@H]2CCC(=O)N2)c2ccc(Cl)c(=O)[nH]2)cc1Cl` (single isomer, unassigned) [Example 4-310] as the molecule, how does the EC50 read?
Answer: 0.5 to 3 µM

Question: How did the EC50 turn out when `Cc1ccc(C(C[C@H]2CCC(=O)N2)c2ccc(Cl)c(=O)[nH]2)cc1Cl` (single isomer, unassigned) [Example 4-311] was run?
Answer: 3 to 10 µM

Question: How did the EC50 turn out when `CCCc1ccc(C(C[C@H]2CCC(=O)N2)c2ccc(Cl)c(=O)[nH]2)cc1` (single isomer, unassigned) [Example 4-312] was run?
Answer: 0.5 to 3 µM

Question: How did the EC50 turn out when `CC(C)(C)c1ccc(C(C[C@H]2CCC(=O)N2)c2ccc(C(F)(F)F)c(=O)[nH]2)cc1` (single isomer, unassigned) [Example 4-314] was run?
Answer: 0.5 to 3 µM

Question: `CC(C)(C)c1ccc(C(C[C@H]2CCC(=O)N2)c2ccc(C(F)(F)F)c(=O)[nH]2)cc1` (single isomer, unassigned) [Example 4-315] was tested. Which EC50 did it give?
Answer: 3 to 10 µM

Question: For `O=C1CC[C@H](CC(c2ccc(C3CC3)cc2)c2ccc(Cl)c(=O)[nH]2)N1` (single isomer, unassigned) [Example 4-316], which EC50 is on record?
Answer: 3 to 10 µM

Question: How did the EC50 turn out when `O=C1CC[C@H](CC(c2ccc(C3CC3)cc2)c2ccc(Cl)c(=O)[nH]2)N1` (single isomer, unassigned) [Example 4-317] was run?
Answer: 0.5 to 3 µM

Question: Which EC50 does the source give for `Cc1ccc(C(C[C@H]2CCC(=O)N2)c2ccc(Cl)c(=O)[nH]2)cc1` (single isomer, unassigned) [Example 4-318] here?
Answer: 3 to 10 µM

Question: Which EC50 does the source give for `CC(C)c1ccc(C(C[C@H]2CCC(=O)N2)c2ccc(C3CC3)c(=O)[nH]2)cc1Cl` (single isomer, unassigned) [Example 4-320] here?
Answer: 0.01 to 0.5 µM

Question: `CC(C)c1ccc(C(C[C@H]2CCC(=O)N2)c2ccc(C3CC3)c(=O)[nH]2)cc1Cl` (single isomer, unassigned) [Example 4-321] was tested. Which EC50 did it give?
Answer: 0.5 to 3 µM

Question: With `CC(C)Oc1ccc(C(C[C@H]2CCC(=O)N2)c2ccc(C3CC3)c(=O)[nH]2)cc1Cl` (single isomer, unassigned) [Example 4-322] as the molecule, how does the EC50 read?
Answer: 0.01 to 0.5 µM

Question: How did the EC50 turn out when `CC(C)Oc1ccc(C(C[C@H]2CCC(=O)N2)c2ccc(C3CC3)c(=O)[nH]2)cc1Cl` (single isomer, unassigned) [Example 4-323] was run?
Answer: 3 to 10 µM

Question: With `CCc1ccc(C(C[C@H]2CCC(=O)N2)c2ccc(Cl)c(=O)[nH]2)cc1Cl` (single isomer, unassigned) [Example 4-324] as the molecule, how does the EC50 read?
Answer: 0.5 to 3 µM

Question: For `CCc1ccc(C(C[C@H]2CCC(=O)N2)c2ccc(Cl)c(=O)[nH]2)cc1Cl` (single isomer, unassigned) [Example 4-325], which EC50 is on record?
Answer: 3 to 10 µM

Question: `COc1ccc(C(C[C@H]2CCC(=O)N2)c2ccc(C3CC3)c(=O)[nH]2)cc1Cl` (single isomer, unassigned) [Example 4-326] was tested. Which EC50 did it give?
Answer: 0.01 to 0.5 µM

Question: `COc1ccc(C(C[C@H]2CCC(=O)N2)c2ccc(C3CC3)c(=O)[nH]2)cc1Cl` (single isomer, unassigned) [Example 4-327] was tested. Which EC50 did it give?
Answer: 3 to 10 µM

Question: With `CCOc1ccc(C(C[C@H]2CCC(=O)N2)c2ccc(C3CC3)c(=O)[nH]2)cc1` (single isomer, unassigned) [Example 4-328] as the molecule, how does the EC50 read?
Answer: 0.5 to 3 µM

Question: Which EC50 does the source give for `Cc1cc(C(C[C@H]2CCC(=O)N2)c2ccc(C3CC3)c(=O)[nH]2)ccc1C(F)(F)F` (single isomer, unassigned) [Example 4-330] here?
Answer: 0.5 to 3 µM

Question: For `Cc1cc(C(C[C@H]2CCC(=O)N2)c2ccc(C3CC3)c(=O)[nH]2)ccc1C(F)(F)F` (single isomer, unassigned) [Example 4-331], which EC50 is on record?
Answer: 3 to 10 µM

Question: For `O=C1CC[C@H](CC(c2ccc(C3CC3)c(=O)[nH]2)c2ccc(C(F)(F)F)cc2F)N1` (single isomer, unassigned) [Example 4-332], which EC50 is on record?
Answer: 0.5 to 3 µM

Question: How did the EC50 turn out when `O=C1CC[C@H](CC(c2ccc(C3CC3)c(=O)[nH]2)c2ccc(C(F)(F)F)cc2F)N1` (single isomer, unassigned) [Example 4-333] was run?
Answer: 3 to 10 µM

Question: For `O=C1CC[C@H](CC(c2ccc(C3CC3)c(=O)[nH]2)c2ccc(Cl)cc2F)N1` (single isomer, unassigned) [Example 4-334], which EC50 is on record?
Answer: 0.5 to 3 µM

Question: How did the EC50 turn out when `O=C1CC[C@H](CC(c2ccc(C3CC3)c(=O)[nH]2)c2ccc(Cl)cc2F)N1` (single isomer, unassigned) [Example 4-335] was run?
Answer: 3 to 10 µM

Question: `CCc1ccc(C(C[C@H]2CCC(=O)N2)c2ccc(C3CC3)c(=O)[nH]2)cc1Cl` (single isomer, unassigned) [Example 4-336] was tested. Which EC50 did it give?
Answer: 0.01 to 0.5 µM

Question: `CCc1ccc(C(C[C@H]2CCC(=O)N2)c2ccc(C3CC3)c(=O)[nH]2)cc1Cl` (single isomer, unassigned) [Example 4-337] was tested. Which EC50 did it give?
Answer: 0.5 to 3 µM

Question: With `COCCCc1ccc(C(C[C@H]2CCC(=O)N2)c2ccc(Cl)c(=O)[nH]2)cc1` (single isomer, unassigned) [Example 4-338] as the molecule, how does the EC50 read?
Answer: 0.5 to 3 µM

Reference: patent publication US8822503B2, “2-pyridone compounds” (Taisho Pharmaceutical Co., Ltd, priority 2009, dated 2014)
